Columns and labels:
SARS-Cov-2 3CLpro = molecular target: T1, SARS-Cov-2 3CLpro (Severe acute respiratory syndrome coronavirus 2, UniProt P0DTD1); assay: SARS-Cov-2 3CLpro and HRV3C duplex assay (SAMDI-MS): 3CLpro; format: biochemical; details: 30 mins preincubation
T1 construct: 3CLpro and HRV3C was added using a Multidrop Combi

in vitro = details: human, A549-dual ACE2 TMPRSS2 cells without virus
HRV3C = molecular target: T2, HRV3C (Human rhinovirus 14, UniProt P03303); assay: SARS-Cov-2 3CLpro and HRV3C duplex assay (SAMDI-MS): HRV3C; format: biochemical; details: 30 mins preincubation, read-out: HRV (IC50)
T2 construct: 3CLpro and HRV3C was added using a Multidrop Combi
T2 sequence (P03303 1538-1719): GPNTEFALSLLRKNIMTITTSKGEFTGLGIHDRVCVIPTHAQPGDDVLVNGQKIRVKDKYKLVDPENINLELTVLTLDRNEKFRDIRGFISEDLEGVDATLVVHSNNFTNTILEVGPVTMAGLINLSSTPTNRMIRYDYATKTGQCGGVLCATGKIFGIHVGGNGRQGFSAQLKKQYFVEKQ

[1] = system: SARS-CoV-2 B.1.1.7 lineage; assay: microbe, parasite or virus in culture; format: cell-based; details: Severe acute respiratory syndrome coronavirus 2, 96 h; read-out: A549-dual_ACE2_TMPRSS2 (EC50)
human cathepsin L = molecular target: T3, human cathepsin L (Homo sapiens, UniProt P07711); assay: Cathepsin L assay; format: biochemical; details: 10 pM human cathepsin L, substrate Z-FR-AMC 2 μM
T3 construct: purchased R&D Systems
T3 sequence (P07711 114-333): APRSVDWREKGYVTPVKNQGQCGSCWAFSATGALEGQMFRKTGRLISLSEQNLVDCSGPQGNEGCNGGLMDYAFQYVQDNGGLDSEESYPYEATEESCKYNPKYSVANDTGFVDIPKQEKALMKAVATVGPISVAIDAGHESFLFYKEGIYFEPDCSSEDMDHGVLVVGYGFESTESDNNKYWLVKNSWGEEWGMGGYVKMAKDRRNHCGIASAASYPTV
Experimental: For the cathepsin L assay, 10 pM of human cathepsin L (R&D Systems; Minneapolis, MN) was preincubated for 30 mins with test compounds. Reactions were initiated by the addition of a peptide substrate Z-FR-AMC (final concentration 2 μM, Anaspec; Fremont, CA). Fluorescence was measured at 2-minute intervals for 30 mins using a 355/460 excitation/emission filter module on an Envision plate reader (Perkin Elmer; Waltham, MA). The IC50 values were calculated for each assay by fitting the curves using a four-parameter equation in GraphPad Prism.

[2] = Cytotoxicity in HeLa cells without OC43 virus; format: cell-based; details: human, cell-titer-glo
Experimental: (§1) The human beta-coronavirus OC43 was purchased from ATCC (Manassas, VA) and propagated using HCT-8 human colorectal epithelial cells (ATCC). HeLa human cervical epithelial cells (ATCC) were used as susceptible host cell lines and were cultured using EMEM media, supplemented with 10% fetal bovine serum (FBS), 1% (v/v) penicillin/streptomycin (P/S), 1% (v/v) HEPES and 1% (v/v) cellgro Glutagro™ supplement (all Corning, Manassas, VA) at 37° C. For the OC43 antiviral assay, 1.5×10^4 HeLa cells per well were plated in 100 μL complete media in white 96-well plates with clear bottoms at 37° C. for up to 24 h to facilitate attachment and allow cells to recover from seeding stresses. Next day, the cell culture medium was removed. […] 100 μL of OC43 virus stock was diluted to a concentration known to produce optimal cytopathic effect, inducing 80-90% reduction in cell viability. 96-well plates were incubated for 6 (HeLa) days at 33° C.; each plate contains uninfected control wells as well as virus-infected wells that were not treated with compound. Cytotoxicity plates without the addition of OC43 virus were carried out in parallel. At the end of the incubation period, 100 μL cell culture supernatant was replaced with 100 μL cell-titer-glo reagent (Promega, Madison, WI) and incubated for at least 10 min at rt prior to measuring luminescence. Luminescence was measured on a Perkin Elmer (Waltham, MA) Envision plate reader. Antiviral % inhibition was calculated as follows: [(Compound treated cells infected sample)−(no compound infected control)]/[(Uninfected control)−(no compound infected control)]*100; Using GraphPad (San Diego, CA) prism software version 8.3.1, the antiviral dose-response plot was generated as a sigmoidal fit, log(inhibitor) vs response-variable slope (four parameters) model and the EC50 was calculated which is the predicted compound concentration corresponding to a 50% inhibition of the viral cytopathic effect.

[3] = system: human beta-coronavirus OC43; assay: OC43 coronavirus antiviral assay in HeLa cells; format: cell-based; details: Betacoronavirus 1, 144 h, 6 days at 33° C., viral cytopathic effect, cell-titer-glo
Experimental: as §1

SARS-CoV-2 = details: cited from earlier work
3CLpro = 3CLpro (Severe acute respiratory syndrome coronavirus 2, UniProt P0DTD1); details: cited from earlier work

Structure (SMILES)	IC50 (SARS-Cov-2 3CLpro) [nM]	CC50 (in vitro) [nM]	IC50 (HRV3C) [nM]	EC50 [1] [nM]	IC50 (human cathepsin L) [nM]	CC50 at 6 days [2] [nM]	EC50 [3] [nM]	antiviral effect when TMPRSS2 was expressed (SARS-CoV-2; A549-ACE2 expressing TMPRSS2)	inhibition of SARS-CoV-2 (SARS-CoV-2; VeroE6, A549-ACE2 and/or HeLa-ACE2)	inhibitory effect on the 3CLpro (3CLpro)
CC(C)(C)[C@H](NC(=O)OC1CC1)C(=O)N1C[C@@H]2[C@H]3C[C@@H]([C@@H]2[C@H]1C(=O)N[C@H](C#N)C[C@@H]1CCNC1=O)[C@H](F)C3 [Compound 3, cyclopropyl ((S)-1-((1S,3aR,4S,6R,7S,7aR)-1-(((S)-1-cyano-2-((S)-2-oxopyrrolidin-3-yl)ethyl)carbamoyl)-6-fluorooctahydro-2H-4,7-methanoisoindol-2-yl)-3,3-dimethyl-1-oxobutan-2-yl)carbamate]	< 20	> 1000	> 500	< 100	≥ 10000	> 100000	< 100			
COC(=O)N[C@H](C(=O)N1C[C@@H]2[C@H]3C[C@@H]([C@@H]2[C@H]1C(=O)N[C@H](C#N)C[C@@H]1CCNC1=O)[C@H](F)C3)C(C)(C)C [Compound 2, methyl N-[(2S)-1-[(1S,2R,3S,6R,7S,9R)-3-{[(1S)-1-cyano-2-[(3S)-2-oxopyrrolidin-3-yl]ethyl]carbamoyl}-9-fluoro-4-azatricyclo[5.2.1.0^{2,6}]decan-4-yl]-3,3-dimethyl-1-oxobutan-2-yl]carbamate]	< 20	> 1000	> 500	100 to 1000	≥ 10000	> 100000	< 100			
COC(=O)N[C@H](C(=O)N1C[C@H]2[C@@H]([C@H]1C(=O)N[C@H](C#N)C[C@@H]1CCNC1=O)[C@H]1C=C[C@@H]2C1)C(C)(C)C [Compound 1, methyl ((S)-1-((1S,3aR,4S,7R,7aS)-1-(((S)-1-cyano-2-((S)-2-oxopyrrolidin-3-yl)ethyl)carbamoyl)-1,3,3a,4,7,7a-hexahydro-2H-4,7-methanoisoindol-2-yl)-3,3-dimethyl-1-oxobutan-2-yl)carbamate]	< 20	> 1000	> 500	< 100	≥ 10000	> 100000	< 100			
CN1CCN(C(=O)N[C@@H](Cc2ccccc2)C(=O)N[C@H](/C=C/S(=O)(=O)c2ccccc2)CCc2ccccc2)CC1 [Compound K117777]								abolished	potent inhibition	lacks an inhibitory effect

From patent US12630538B2, “Anti-viral compounds” (Aligos Therapeutics, Inc., priority 2022, dated 2026)
